Measured values published in EP0076973A1, “A new dioxolanic compound and its method of preparation; a new dioxolanic amine with pharmacological activity, its method of preparation, and the pharmaceutical compositions containing them” (Investigacion Tecnica y Aplicada, S.A., priority 1981, dated 1983).
Where a name gives a salt, the structure may show the parent alone. Read-outs that look alike come from different tables or passages of the source.

Legend:
[1] = system: male NMRI mouse; test: Anti-arrythmic activity: fibrillation by chloroform in the mouse; format: in vivo; conditions: for ED50: Mus musculus
Text: Tables 5 and 6 show the anti-arrithmic activity of the ITA 362 in the male NMRI mouse by oral and intraperitoneal route using the fibrillation test by chloroform in the mouse. […] The activity of the two forms of maleate described in the example 2 were studied and which in the table are subtitled as isomer A corresponding to the first fraction obtained in the aforementioned example, and isomer B corresponding to the second fraction.

[2] = system: hind quarters of rats; test: Vasodilatory activity: perfusion of the hindquarters of rats with a hyperpotasemic solution; format: in vivo, rat; design: ED 25: unit not given here
Text: In the table 3 is shown the results of the vasodilatory activity of the ITA 362 in the perfusion test of the hindquarters of rats with a hyperpotasemic solution. (F.N.Fastier, F.M. Smirk. Jl. Pharmacolog. Exp. Therapy. 89. 256, 1947).

[3] = Acute toxicity (LD50, method of Litchfield and Wilcoxon) in the mouse; conditions: in vivo
Protocol: (§1) The respective lethal dose 50 was calculated according to the method of Litchfield and Wilcoxon (Jl. Pharmacol. Exptl. 96 99, 1949 ).

[4] = system: conscious dog; test: Anti-angina activity: amplitude increase protection of the T wave by vasopression in the conscious dog; format: in vivo
Text: The antiangina activity was also compared with that of the nitroglycerine by means of the amplitude increase protection test of the T wave for vasopression in the conscious dog. ( A.Lindner, M.London, G.Werner, Scheiz. Med.
Wsohr. 83-,- 360, 1953; J.Papp, L. Szekeres. Arch. Int. Pharmacodyn. 160, 1, 1966 ).

[5] = Acute toxicity (LD50, method of Litchfield and Wilcoxon) in the rat; conditions: in vivo
Protocol: as §1

[6] = ip, no unit given for ED50 (doses in mg/kg), read-out: ED50 and confidence limits p < 0,05
[7] = po, no unit given for ED50 (doses in mg/kg), (*) = calculation of limits is not possible, read-out: ED50 and confidence limits p<0,05
[8] = ip, intraperitoneal administration, read-out: LD50 and confidence limits
[9] = oral administration, read-out: LD50

| Structure (SMILES) | ED50 [1, 6] [mg/kg] | % protection versus fibrillation ([1]; i.p. 25 mg/kg) [%] | % protection versus fibrillation ([1]; i.p. 50 mg/kg, 50 mg/kg) [%] | % protection versus fibrillation ([1]; i.p. 100 mg/kg, 100 mg/kg) [%] | % protection versus fibrillation ([1]; i.p. 12,5 mg/kg) [%] | % protection versus fibrillation ([1]; p.o. 25 mg/kg, 25 mg/kg) [%] | % protection versus fibrillation ([1]; p.o. 50 mg/kg, 50 mg/kg) [%] | % protection versus fibrillation ([1]; p.o. 100 mg/kg, 100 mg/kg) [%] | % protection versus fibrillation ([1]; p.o. 12,5 mg/kg) | ED50 [1, 7] [mg/kg] | % drop in pressure ([2]; concentration 10^-5 g/ml) | % drop in pressure ([2]; concentration 10^-6 g/ml) | % drop in pressure ([2]; concentration 10^-7 g/ml) | % drop in pressure ([2]; concentration 10^-8 g/ml) | % Prot. ([4]; dose i.v. 1 mg/kg, 1 mg/kg) | further results |
| --- | --- | --- | --- | --- | --- | --- | --- | --- | --- | --- | --- | --- | --- | --- | --- | --- |
| CCCCNCC1COC(c2ccc(Cl)cc2)(c2cc3ccccc3o2)O1 (single isomer, unassigned) [ITA 362 maleate (isomer A)] | 35.3 | 35 | 60 | 70 | 35 | 35 | 70 | 70 | 25% |  |  |  |  |  |  |  |
| CCCCNCC1COC(c2ccc(Cl)cc2)(c2cc3ccccc3o2)O1 (single isomer, unassigned) [ITA 362 maleate (isomer B)] |  | 35 | 70 | 95 | 40 | 55 | 45 | 85 | 35% | 27.6 |  |  |  |  |  | ED50 and confidence limits p < 0,05 ([1]; route i.p., no unit given for ED50 (doses in mg/kg)): 24,5 (16,11 37,20) |
| CCCCNCC1COC(c2ccc(Cl)cc2)(c2cc3ccccc3o2)O1 (stereo not shown) [ITA 362 citrate] | 41.4 | 40 |  |  | 25 |  |  |  | 31,6% | 43.2 | 33,6% | 16,3% | 12,7% | 12,5% |  | % protection versus fibrillation ([1]; i.p. 50 mg/kg): 35%; % protection versus fibrillation ([1]; i.p. 100 mg/kg): 84,2%; % protection versus fibrillation ([1]; p.o. 25 mg/kg): 45%; % protection versus fibrillation ([1]; p.o. 50 mg/kg): 55%; % protection versus fibrillation ([1]; p.o. 100 mg/kg): 55%; % protection versus fibrillation ([1]; p.o. 3,125 mg/kg): 10%; % protection versus fibrillation ([1]; p.o. 6,25 mg/kg): 42,1%; ED 25 ([2]; from concentrations 10^-5 to 10^-8 g/ml, correlation r printed in the same cell): 2,61 |
| CCCCNCC1COC(c2ccc(Cl)cc2)(c2cc3ccccc3o2)O1 (stereo not shown) [ITA 362 maleate, 2-(2'-benzofuranil) -4-butylaminomethyl--2-p-chlorophenyl-1,3-dioxolane, maleate] |  |  |  |  |  |  |  |  |  |  |  |  |  |  | 46,8% | LD50 [3, 8]: 106 mg/kg; LD50 [3, 9]: > 4000 mg/kg; Control quot. treatment ([4]; dose i.v. 1 mg/kg): 1,893; LD50 [5, 8]: 105 mg/kg; LD50 [5, 9]: > 4000 mg/kg |
| CCCCNCC1COC(c2ccc(Cl)cc2)(c2cc3ccccc3o2)O1 (stereo not shown) [ITA 362, 2-(2' -benzofuranil)-4-n-butylaminomethyl-2-p-chlorophenyl-1,3-dioxolane] |  |  |  |  |  |  |  |  |  |  |  |  |  |  | ~50% |  |
| O=[N+]([O-])OCC(CO[N+](=O)[O-])O[N+](=O)[O-] [Nitro-glycerine, nitroglycerine, reference compound] |  |  |  |  |  |  |  |  |  |  | 25,4% | 24,7% | 17,5% | 10,9% |  | % Prot. ([4]; dose i.v. 0,4 mg/kg): 28,9%; Control quot. treatment ([4]; dose i.v. 0,4 mg/kg): 1,520 |
